Patent publication US7071168B2, “Anti-cancer compounds and methods related thereto” (The Regents of the University of Colorado, priority 1998, dated 2006)
Non-standard residues stand in square brackets, D forms with d. No end group written: not given here. Oic = O=C(O)[C@@H]1C[C@@H]2CCCC[C@@H]2N1; dTic = O=C(O)[C@H]1Cc2ccccc2CN1

Tested on: SCLC strain SHP-77
Test: Colorimetric tetrazolium (MTT) assay for cell survival, SCLC strain SHP-77
Type: cell-based, human
Settings: SCLC strain SHP-77 in vitro
Experimental: (§1) In general, Anti-bradykinin activity was determined by the classical guinea pig ileum assay and on Chinese hamster ovary (CHO) cells expressing cloned human bradykinin B2 receptors. Anti-tumor activity was determined on cultured human cancer cell lines using the standard tetrazolium (MTT) assay.
Cell growth and survival were measured by a rapid colorimetric assay based on the tetrazolium salt MTT (3-(4,5-dimethylthiazol-2-yl)-2,5-diphenyl tetrazolium bromide) (Mosmann, J Immunol. Methods 65: 55–63, 1983, with minor modifications). Briefly, 1,000 normal lung fibroblasts or normal epithelial BEAS-2B cells, 1,000 or 5,000 viable non-SCLC cells or 10,000 viable SCLC cells were plated in 100 μL of growth medium in 96-well flat-bottomed microtiter plates. Cells were incubated overnight to allow recovery. Compounds to be tested were added to the cells in triplicate in a range of concentrations and the cells were incubated at 37° C., 5% CO2, with 100% humidity. Control cells were treated in the same way without antagonists. […] Plates were incubated for 4 days, allowing sufficient time for cell replication and compound-induced cell death to occur. On day 5, 25 μL of a 2 mg/mL solution of MTT (Sigma) dissolved in RMPI-1640was added to each well. The plate was incubated for 4 h at 37° C. The supernate was removed and the blue formazan complex was dissolved by adding 100 μL of 0.02 N HCl in 75% isopropanol to all wells. Absorbance was immediately determined using a scanning multiwell plate reader. B9870 caused 50% cell death at a concentration of 0.15 μM under these conditions.

Row | Molecule | MTT: ED50 for killing of SCLC strain SHP-77 in vitro
1 | CC1(C)CC(NC(=O)[C@@H](NC(=N)CCCCCCCCCCCCC(=O)O)C2Cc3ccccc3C2)CC(C)(C)N1 [M280-1] | 21 µM
2 | CC1(C)CC(NC(=O)C(Cc2ccc3ccccc3c2)NC(=O)CCCCCNC(=O)c2cc(C(=O)NCCCCCC(=O)NC(Cc3ccc4ccccc4c3)C(=O)NC3CC(C)(C)NC(C)(C)C3)cc(C(=O)NCCCCCC(=O)NC(Cc3ccc4ccccc4c3)C(=O)NC3CC(C)(C)NC(C)(C)C3)c2)CC(C)(C)N1 (stereo not drawn) [M290-2] | 20 µM
3 | CC1(C)CC(NC(=O)C(NC(=O)C=Cc2ccc(N)cc2)C2Cc3ccccc3C2)CC(C)(C)N1 (stereo not drawn) [M292] | 40 µM
4 | CC1(C)CC(NC(=O)C(Cc2ccc(-c3ccccc3)cc2)NC(=O)C=Cc2cccnc2)CC(C)(C)N1 (stereo not drawn) [M296] | 15 µM
5 | CC1(C)CC(NC(=O)C(Cc2ccc3ccccc3c2)NC(=O)c2ccc(NC(=N)N)cc2)CC(C)(C)N1 (stereo not drawn) [M306] | >100 µM
6 | CC1(C)CC(NC(=O)C(Cc2ccc(O)cc2)NC(=O)C=Cc2c(F)c(F)c(F)c(F)c2F)CC(C)(C)N1 (stereo not drawn) [M316] | 50 µM
7 | CC1(C)CC(NC(=O)C2CC3CCCCC3N2C(=O)C=Cc2c(F)c(F)c(F)c(F)c2F)CC(C)(C)N1 (stereo not drawn) [M320] | 13 µM
8 | CC1(C)CC(NC(=O)C2Cc3ccccc3CN2C(=O)C=Cc2c(F)c(F)c(F)c(F)c2F)CC(C)(C)N1 (stereo not drawn) [M322] | 7.6 µM
9 | Cc1cc(NC(=O)c2cccc(NC(=O)CNC(=O)/C=C/c3cccnc3)c2)c2ccccc2n1 [M428] | >300 µM
10 | CC1(C)CC(NC(=O)C(Cc2csc3ccccc23)NC(=NC2CCCCC2)NC2CCCCC2)CC(C)(C)N1 (stereo not drawn) [M440] | 30 µM
11 | O=C(CCCCCCCCCCC(=O)N[C@@H](Cc1cccnc1)C(=O)N[C@@H](Cc1ccc2ccccc2c1)C(=O)NC1CCCCC1)N[C@@H](Cc1cccnc1)C(=O)N[C@@H](Cc1ccc2ccccc2c1)C(=O)NC1CCCCC1 [M460] | 15 µM
12 | O=C(C=Cc1c(F)c(F)c(F)c(F)c1F)NC(Cc1ccc2ccccc2c1)C(=O)NCc1cccnc1 (stereo not drawn) [M466] | Inact
13 | CN(C)CCCNC(=O)[C@H](Cc1ccc2ccccc2c1)NC(=O)C=Cc1ccc(NC(=O)CCCCCCCCCCC(=O)Nc2ccc(C=CC(=O)N[C@@H](Cc3ccc4ccccc4c3)C(=O)NCCCN(C)C)cc2)cc1 [M538] | >80 µM
14 | CCOC(=O)CN1C(C)(C)CC(NC(=O)C(Cc2ccc3ccccc3c2)NC(=O)C(C2CCCCC2)C2CCCCC2)CC1(C)C (stereo not drawn) [M572] | 2.6 µM
15 | COC(=O)C(Cc1ccc(OCc2ccccc2)cc1)N(Cc1ccc(N(C)C)cc1)C(=O)C=Cc1c(F)c(F)c(F)c(F)c1F (stereo not drawn) [M614] | 9.1 µM
16 | CC1(C)CC(NC(=O)C(Cc2cccc3ccccc23)NC(=O)C(Cc2cnc[nH]2)NC(=O)CCCCCCCCCCC(=O)NC(Cc2cnc[nH]2)C(=O)NC(Cc2cccc3ccccc23)C(=O)NC2CC(C)(C)NC(C)(C)C2)CC(C)(C)N1 (stereo not drawn) [M660] | 30 µM
17 | CN(C)c1ccc(CNC(=O)C(Cc2ccc(OCc3c(Cl)cccc3Cl)cc2)NC(=O)C=Cc2c(F)c(F)c(F)c(F)c2F)cc1 (stereo not drawn) [M798] | 37 µM
18 | CC1(C)CC(NC(=O)C(Cc2ccc(OCc3c(Cl)cccc3Cl)cc2)NC(=O)CN(CCN(CC(=O)NC(Cc2ccc(OCc3c(Cl)cccc3Cl)cc2)C(=O)NC2CC(C)(C)NC(C)(C)C2)CC(=O)NC(Cc2ccc(OCc3c(Cl)cccc3Cl)cc2)C(=O)NC2CC(C)(C)NC(C)(C)C2)CC(=O)NC(Cc2ccc(OCc3c(Cl)cccc3Cl)cc2)C(=O)NC2CC(C)(C)NC(C)(C)C2)CC(C)(C)N1 (stereo not drawn) [M1040, EDTA-(OC2Y-ATMP)4] | 0.73 µM

Same assay, conditions: Table 1; SHP-77, MTT, 4 days

Row | Molecule | MTT: ED50 for killing of SCLC strain SHP-77 in vitro
19 | 33Dp-DArg-Arg-Aud-Ser-D5F5-Oic-Arg [M964] | 4 to 8 µM
20 | Aaa-DArg-Arg-Aud-Ser-D5F5-Oic-Arg [M956] | 14 µM
21 | Aaa-DArg-Arg-Eac-Ser-D5F5-Oic-Arg [M954] | 10 µM

Tested on: bradykinin response of isolated guinea pig ileum
Test: Anti-bradykinin activity on isolated guinea pig ileum
Settings: Table 1; higher numbers indicate higher potency
Experimental: as §1
Male Hartley guinea pigs that had been deprived of food overnight were sacrificed, and sections of terminal ileum, 25 mm in length, were dissected, attached to tissue holders and immersed in 10 ml tissue baths containing Krebs' solution bubbled with 95% O2/5% CO2. Tissues were placed under 1 g tension and incubated for 1 h equilibration. Concentration-effect curves were constructed to bradykinin in the absence and presence of new compounds.

Row | Molecule | GPI: pA2 for bradykinin antagonist activity on isolated guinea pig ileum
22 | Dcg-BtA-Arg [M68] | 4.9
23 | Dcg-Gly-Cmp-Arg [M124] | 4.7
24 | Dcg-Igl-Arg [M70] | 4.8
25 | Dcg-Ile-Arg [M84] | 5.1
26 | Dcg-Pac-Gly-m-ABz-2-Nal-Arg [M200-2] | 4.9
27 | Dcg-Trx-Arg [M134] | 4.9
28 | Dcg-p-Amb-Arg [M346] | 4.6
29 | Dhq-DArg-Arg-Pro-Hyp-Gly-CpG-Ser-DCpG-CpG-Arg [B9074] | 6.3
30 | F5c-APb-Arg [M372] | 4.6
31 | F5c-Ana-Arg [M392] | 4.5
32 | F5c-Bip-Arg [M394] | 4.7
33 | F5c-DArg-Arg-Aud-DTic-hPhe-Arg [M766] | 5.1
34 | F5c-DhPhe-Arg [M730] | 4.7
35 | F5c-Dpr(Fbz)-Arg [M688] | Inact
36 | F5c-Dpr(Paa)-Arg [M690] | 4.8
37 | F5c-Lys(F5bz)-Arg [M682] | 4.9
38 | F5c-Lys{(CH3)3}-Arg [M388] | 4.9
39 | F5c-PNF-Arg [M732] | 4.9

Row | Molecule | GPI: pA2 for bradykinin antagonist activity on isolated guinea pig ileum
40 | F5c-Pac-Arg [M398] | Inact
41 | F5c-Phe-Arg [M410] | 5.4
42 | F5c-Thi-Arg [M424] | 4.6
43 | F5c-Tic-Arg [M382] | 4.7
44 | F5c-Trp-Arg [M426] | Inact
45 | F5c-Tyr-Arg [M380] | Inact
46 | F5c-m-APa-Arg [M412] | 5.8
47 | F5c-p-ABz-Arg [M148] | 5.1
48 | F5c-p-Amb-APa-Arg [M352] | 4.7
49 | F5c-p-Amb-Arg [M348] | 4.7
50 | Gun-2-Nal-Arg [M20] | 4.6
51 | Gun-Eac-DIgl-Oic-Arg [M42] | 5.0
52 | Gun-Ica-Arg [M88] | 4.7
53 | Mcg-Pac-Gly-m-ABz-2-Nal-Arg [M200-1] | Inact
54 | RPPGFT[dTic][Oic]-NH2 [B10284] | 7.7
55 | RPPGFT[dTic][Oic]R [B10282] | 7.3
56 | ε-SUB-(Lys-DArg-Arg-Eac-Ser-DF5F-Nc7G-Arg)2 [M1038] | 6.4

Same assay, conditions: guinea pig ileum

Row | Molecule | pD2 of bradykinin on ileum
57 | RPPGFSPFR [BK, reference compound] | 7.4
